Test results from patent EP4458977A1, “SELF-ASSEMBLING PEPTIDE AMPHIPHILES AS RETROVIRAL TRANSDUCTION ENHANCERS” (Max-Planck-Gesellschaft zur Förderung der Wissenschaften …, priority 2023, dated 2024).
Where “and” joins values, the source holds several entries; their conditions need not be identical. Equal entries are not always repeated. Entries after “also recorded” stand apart in the source; their conditions may differ. Where two headings read alike, the source gives them in different places. Where a SMILES comes first, the peptide text is derived from it. Where no end group is shown, it is not given here. The star is where a group is joined. X2 = CC/C=C\C/C=C\C/C=C\CCCCCCCC(=O)*; Palmitoyl = CCCCCCCCCCCCCCCC(=O)*

Columns and labels:
[1] = test system: HIV-1; conditions: for Infectivity enhancing N fold at 1.3 µM: relative to virus only; for enhancement of HIV-1 infection / transduction (in words): 6.5 µM, 1.3 µM, 0.26 µM;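 as to all read-outs here: TZM-bl reporter cells exposed to HIV-1 with peptide fibrils, infection read out as β-galactosidase luminescence, compared with virus alone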
Procedure: HIV-1 Infection Assay with TZM-bl cells: The effect of peptide fibrils on HIV-1 infection was studied via a luminescence assay for β-galactosidase, which was reported by TZM-bl cells upon infection. The HIV-1 infection assay was conducted in three technical replicates and repeated in three independent experiments unless stated otherwise.

[2] = TEM of peptide assemblies (fibril formation / assembly); assay type: physicochemical; conditions: for TEM morphology (in words): 1 mg/mL in PBS; for Assembly without hydrophob residue: corresponding peptide without hydrophobic moiety; for Assembly: peptide amphiphile
Summary of the method: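 Peptides predissolved in DMSO at 10 mg/mL (stock), diluted in PBS to 650 µM or 1 mg/mL final and incubated 1 d at rt (20–25 °C) to form fibrils. Other concentrations obtained by diluting preformed fibrils; assemblies imaged by TEM.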

[3] = Zeta-potential measurement (dynamic light scattering); assay type: physicochemical; conditions: for Zeta Potential / mV: 1 mg/mL, PBS
Procedure: Zeta-potential: 60 µL of the peptides (1 mg mL-1) were diluted in 600 µL, 1 mM KCI solution and placed in a disposable folded capillary cuvette. All zeta-potential measurements were conducted by dynamic light scattering technology (Zetasizer, Malvern Instruments) and in triplicates for each sample. The derived count rate of the zeta potential measurement was used as information on the light scattering intensity and turbidity of the sample as a further indicator for microscopic aggregation.

[4] = as above; assay type: physicochemical
[5] = test system: HeLa cells; assay: Confocal laser scanning microscopy and degradation study with PA library and HeLa cells; assay type: cell-based; conditions: for association with cellular membranes: 2 µg added to 20.000 HeLa cells, 30 min; for degradability (in words) / Degradability / % (rel. to initial particles > 10 µm^2): HeLa cells; for degradability (in words): 3 days; for Degradability / % (rel. to initial particles > 10 µm^2): 3 d relative to 30 min; for aggregate number decreases / degraded in presence of HeLa cells within 3 days: d3 relative to d0
Summary of the method: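 HeLa cells (20,000/well) got Proteostat-stained PAs (2 µg peptide per 20.000 cells) with Hoechst nuclear stain, 30 min at 37°C, PBS-washed, then held 3 d at 37°C unwashed. Confocal imaging at d0 and d3 counted aggregates >10 µm^2 in 1008 × 1008 µm, three technical replicates. Degradation taken as d3/d0 aggregate number.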

[6] = Fluorescence microscopy of ThT-stained fibrils (µm-sized aggregates); assay type: physicochemical; conditions: for fluorescent, µm-sized aggregates (ThT staining): 1 mg/mL stained with 50 µM ThT
Summary of the method: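 Fibrils (1 mg mL^-1) mixed 1:9 with 50 µM ThT, giving 0.1 mg mL^-1 stained fibrils on glass. Imaged under 10x air objective with excitation 480/40 nm and emission 527/30 nm. Fibrils called distinct when no visible structures appeared in fluorescence or brightfield.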

[7] = ATR-FT-IR determination of β-sheet content; assay type: physicochemical; conditions: for β-sheet amount: 1 mg/mL in PBS lyophilized, integral at 1630 cm^-1 relative to 1650-1700 cm^-1; for β-sheet content / %: peak integration of parallel β-sheet at 1630 cm-1, 2nd derivative of ATR-IR spectra
Summary of the method: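 Lyophilized fibril samples measured by diamond ATR-FT-IR, 2 cm^-1 resolution, 64 scans averaged. β-sheet content taken from the second-derivative spectrum as the 1630 cm-1 peak integral relative to the 1650-1700 cm-1 integral.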

[8] = Thioflavin T (ThT) fluorescence assay; assay type: physicochemical; parameters: key to ThT: + = ThT active; - = no ThT fluorescence observed; conditions: ThT fluorescence; 1 mg/mL, PBS
Procedure: Transmission electron microscopy (TEM) measurements, Thioflavin (ThT), zeta-potential measurements for fibril characterization were prepared and conducted according to prior art procedures. […] Fibrils were defined as distinct, if no visible structures could be identified in fluorescence and brightfield microscopy. A peptide fibril was considered as ThT-active if the fluorescence intensity was at least twice as strong compared to the control (PBS containing 10% DMSO).

| Compound | Infectivity enhancing N fold at 1.3 µM [1] | TEM morphology (in words) [2] | Assembly without hydrophob residue [2] | Assembly [2] | zeta-potential (in words) [3] | enhances infectivity at 1.3 µM concentration, times more efficient compared to virus only infection [1] [times] | Infectivity enhancing N fold at 1.3 µM ([1]; listed as Pat 15) [N fold] | Zeta-Potential / mV [4] [mV] | association with cellular membranes [5] | degradability (in words) [5] | Degradability / % (rel. to initial particles > 10 µm^2) [5] [%] | Degradability / % (rel. to initial particles > 10 µm^2) ([5]; listed as Pat 15) [%] | aggregate number decreases / degraded in presence of HeLa cells within 3 days [5] [%] | fluorescent, µm-sized aggregates (ThT staining) [6] | β-sheet amount [7] [%] | enhancement of HIV-1 infection / transduction (in words) [1] | formation of µm-sized aggregates in aqueous medium / PBS (in words) [6] | ThT [8] | β-sheet content / % [7] [%] | Zeta Potential / mV [3] |
| --- | --- | --- | --- | --- | --- | --- | --- | --- | --- | --- | --- | --- | --- | --- | --- | --- | --- | --- | --- | --- |
| CC/C=C\C/C=C\C/C=C\CCCCCCCC(=O)N[C@H](C(=O)N[C@H](C(=O)N[C@H](C(=O)N[C@@H](C)C(=O)N[C@@H](C)C(=O)N[C@@H](C)C(=O)N[C@@H](CCCCN)C(=O)N[C@@H](CCCCN)C(=O)N[C@@H](CCCCN)C(N)=O)C(C)C)C(C)C)C(C)C [Pat9] (X2-VVVAAAKKK-NH2) | 1±0 N fold | failed to form fibrils in aqueous medium | No | No | almost neutral zeta-potential |  |  |  |  |  |  |  |  |  |  |  |  |  |  |  |
| CCCCCCCCCCCCCCCC(=O)N[C@H](C(=O)N[C@H](C(=O)N[C@@H](CCC(N)=O)C(=O)N[C@@H](CCCCN)C(=O)N[C@H](C(=O)N[C@@H](CCCCN)C(N)=O)[C@@H](C)CC)[C@@H](C)CC)[C@@H](C)CC [Pat15, C16-IIQKIK-NH2] (Palmitoyl-IIQKIK-NH2) | 4±1 N fold | fibrillar morphologies | No | Yes |  | 4 | 4 | 12.6 | association with cellular membranes | degradable PA | -28 | 28 | 28 | fluorescent, µm-sized aggregates | 45 |  |  |  |  |  |
| CCCCCCCCCCCCCCCC(=O)N[C@@H](C)C(=O)NCC(=O)NCC(=O)N[C@@H](CCCNC(=N)N)C(=O)N[C@H](C(=O)N[C@@H](CCCCN)C(N)=O)C(C)C [Pat18, C16-AGGRVK-NH2] (Palmitoyl-AGGRVK-NH2) | 3±1 N fold | fibrillar morphologies | No | Yes |  | 3 |  | 15.9 |  |  |  |  |  | no fluorescent, µm-sized aggregates | 56 |  |  |  |  |  |
| CCCCCCCCCCCCCCCC(=O)N[C@@H](CC(C)C)C(=O)N[C@@H](CC(N)=O)C(=O)NCC(=O)NCC(=O)N[C@H](C(=O)N[C@@H](CCCCN)C(=O)N[C@@H](CCCCN)C(N)=O)C(C)C [Pat19, C16-LNGGVKK-NH2] (Palmitoyl-LNGGVKK-NH2) | 6 N fold and 6±1 N fold | fibrillar morphologies | No | Yes |  | 6 |  | 19.4 | association with cellular membranes | degradable PA | 48 |  | 48 | fluorescent, µm-sized aggregates | 34 |  |  |  |  |  |
| CCCCCCCCCCCCCCCC(=O)N[C@@H](C)C(=O)N[C@@H](CC(C)C)C(=O)N[C@@H](C)C(=O)N[C@@H](C)C(=O)NCC(=O)N[C@@H](CCCCN)C(=O)N[C@@H](CCCCN)C(N)=O [Pat20, C16-ALAAGKK-NH2] (Palmitoyl-ALAAGKK-NH2) | 5±1 N fold | fibrillar morphologies | No | Yes |  | 5 |  | 20.2 | association with cellular membranes | degradable PA | 87 |  | 87 | fluorescent, µm-sized aggregates | 48 |  |  |  |  |  |
| CCCCCCCCCCCCCCCC(=O)N[C@@H](CC(C)C)C(=O)N[C@@H](CC(C)C)C(=O)N[C@@H](CC(C)C)C(=O)N[C@@H](CCCCN)C(=O)N[C@@H](CCCCN)C(N)=O [Pat23, C16-LLLKK-NH2] (Palmitoyl-LLLKK-NH2) | 3±0 N fold | fibrillar morphologies | No | Yes |  | 3 |  | 20.9 | association with cellular membranes | moderately degradable PA | 27 |  | 27 | fluorescent, µm-sized aggregates | 46 |  |  |  |  |  |
| CCCCCCCCCCCCCCCC(=O)N[C@@H](C)C(=O)N[C@@H](CCCCN)C(=O)N[C@@H](C)C(=O)N[C@H](C(=O)NCC(=O)N[C@@H](CCCCN)C(N)=O)C(C)C [Pat31, C16-AKAVGK-NH2] (Palmitoyl-AKAVGK-NH2) | 6 N fold and 6±3 N fold | fibrillar morphologies | No | Yes |  | 6 |  | 19.7 | association with cellular membranes | degradable PA | 89 |  | 89 | fluorescent, µm-sized aggregates | 43 |  |  |  |  |  |
| FQFKFKC-NH2 [P2, FQFKFKC-NH2] |  | Formation of fibrils; also recorded: twisted fibrils |  |  |  |  |  |  |  |  |  |  |  |  |  | inactive | does not form µm-sized aggregates in PBS | - | 46 | +10.1 ± 3.0 mV |
| VVVAAAEEE-NH2 [P3] |  | amorphous aggregates; also recorded: non-fibrillar amorphous aggregates |  |  |  |  |  |  |  |  |  |  |  |  |  |  | does not form µm-sized aggregates in PBS | - | 46 | -21.2 ± 1.5 mV |
| VVVAAAKKK-NH2 [P1] |  | amorphous aggregates; also recorded: non-fibrillar amorphous aggregates |  |  |  |  |  |  |  |  |  |  |  |  |  | inactive | does not form µm-sized aggregates in PBS | - | 48 | -2.3 ± 0.4 mV |
